Measured values as given in the kinase profiling compilation of Christmann-Franck et al. (2016).

Experiments:
Assay in all cases: radiometric filter-binding kinase assay
BTK (human) = BTK (human) (UniProt Q06187)
BRSK1 (human) = BRSK1 (human) (UniProt Q8TDC3)
PRKACA (human) = PRKACA (human) (UniProt P17612)
MARK2 (human) = MARK2 (human) (UniProt Q7KZI7)
INSR (human) = INSR (human) (UniProt P06213)
MKNK1 (human) = MKNK1 (human) (UniProt Q9BUB5)
CaMK1 (human) = CaMK1 (human) (UniProt Q14012)
CAMKK2 (human) = CAMKK2 (human) (UniProt Q96RR4)
PHKG1 (human) = PHKG1 (human) (UniProt Q16816)
EPHA4 (human) = EPHA4 (human) (UniProt P54764)
CSK (human) = CSK (human) (UniProt P41240)
EPHB2 (human) = EPHB2 (human) (UniProt P29323)
INSRR (human) = INSRR (human) (UniProt P14616)
PRKCA (human) = PRKCA (human) (UniProt P17252)
SRPK1 (human) = SRPK1 (human) (UniProt Q96SB4)
CDK2 CCNA2 (human) = CDK2 CCNA2 (human) (UniProt P20248+P24941)
MAPKAPK2 (human) = MAPKAPK2 (human) (UniProt P49137)
MAP2K1 (human) = MAP2K1 (human) (UniProt Q02750)
ERBB4 (human) = ERBB4 (human) (UniProt Q15303)
PRKAA1 or PRKAA2 (rat) = conditions: accession and sequence are those of the human protein
PAK7 (human) = PAK7 (human) (UniProt Q9P286)
JAK2 JH1 JH2 (human) = JAK2 JH1 JH2 (human) (UniProt O60674)
HIPK3 (human) = HIPK3 (human) (UniProt Q9H422)
LCK (mouse) = conditions: accession and sequence are those of the human protein
MARK1 (human) = MARK1 (human) (UniProt Q9P0L2)
RIPK2 (human) = RIPK2 (human) (UniProt O43353)
MST4 (human) = MST4 (human) (UniProt Q9P289)
EPHA2 (human) = EPHA2 (human) (UniProt P29317)
DYRK2 (human) = DYRK2 (human) (UniProt Q92630)
MAPK15 (human) = MAPK15 (human) (UniProt Q8TD08)
MINK1 (human) = MINK1 (human) (UniProt Q8N4C8)
NUAK1 (human) = NUAK1 (human) (UniProt O60285)
RPS6KA5 KD1 KD2 (human) = RPS6KA5 KD1 KD2 (human) (UniProt O75582)
NEK6 (human) = NEK6 (human) (UniProt Q9HC98)
NEK2 (human) = NEK2 (human) (UniProt P51955)
NEK2 (human), sequence (P51955 whole entry, looked up): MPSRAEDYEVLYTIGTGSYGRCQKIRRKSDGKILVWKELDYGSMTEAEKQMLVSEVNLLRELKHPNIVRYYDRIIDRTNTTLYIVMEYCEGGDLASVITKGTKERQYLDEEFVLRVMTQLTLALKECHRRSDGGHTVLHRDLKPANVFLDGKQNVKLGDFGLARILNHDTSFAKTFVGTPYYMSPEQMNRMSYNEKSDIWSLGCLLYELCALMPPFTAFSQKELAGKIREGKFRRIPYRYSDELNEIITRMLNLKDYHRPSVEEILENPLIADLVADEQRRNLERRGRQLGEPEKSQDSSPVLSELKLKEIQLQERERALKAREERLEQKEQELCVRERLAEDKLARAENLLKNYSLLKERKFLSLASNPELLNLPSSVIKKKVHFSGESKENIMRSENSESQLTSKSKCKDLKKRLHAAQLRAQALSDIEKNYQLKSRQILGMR

MAP2K1 (human), sequence (Q02750 whole entry, looked up): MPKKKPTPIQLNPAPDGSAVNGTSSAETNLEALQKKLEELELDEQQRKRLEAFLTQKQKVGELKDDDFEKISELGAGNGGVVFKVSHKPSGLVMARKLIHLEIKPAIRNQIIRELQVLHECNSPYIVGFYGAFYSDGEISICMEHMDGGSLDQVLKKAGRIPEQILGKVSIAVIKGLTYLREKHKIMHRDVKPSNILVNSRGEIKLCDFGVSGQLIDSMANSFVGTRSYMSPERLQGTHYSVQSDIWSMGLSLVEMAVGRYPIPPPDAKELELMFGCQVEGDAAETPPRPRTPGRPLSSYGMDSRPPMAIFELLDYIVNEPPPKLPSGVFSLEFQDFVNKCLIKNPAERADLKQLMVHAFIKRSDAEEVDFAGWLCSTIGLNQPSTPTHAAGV
RPS6KA5 KD1 KD2 (human), sequence (O75582 whole entry, looked up): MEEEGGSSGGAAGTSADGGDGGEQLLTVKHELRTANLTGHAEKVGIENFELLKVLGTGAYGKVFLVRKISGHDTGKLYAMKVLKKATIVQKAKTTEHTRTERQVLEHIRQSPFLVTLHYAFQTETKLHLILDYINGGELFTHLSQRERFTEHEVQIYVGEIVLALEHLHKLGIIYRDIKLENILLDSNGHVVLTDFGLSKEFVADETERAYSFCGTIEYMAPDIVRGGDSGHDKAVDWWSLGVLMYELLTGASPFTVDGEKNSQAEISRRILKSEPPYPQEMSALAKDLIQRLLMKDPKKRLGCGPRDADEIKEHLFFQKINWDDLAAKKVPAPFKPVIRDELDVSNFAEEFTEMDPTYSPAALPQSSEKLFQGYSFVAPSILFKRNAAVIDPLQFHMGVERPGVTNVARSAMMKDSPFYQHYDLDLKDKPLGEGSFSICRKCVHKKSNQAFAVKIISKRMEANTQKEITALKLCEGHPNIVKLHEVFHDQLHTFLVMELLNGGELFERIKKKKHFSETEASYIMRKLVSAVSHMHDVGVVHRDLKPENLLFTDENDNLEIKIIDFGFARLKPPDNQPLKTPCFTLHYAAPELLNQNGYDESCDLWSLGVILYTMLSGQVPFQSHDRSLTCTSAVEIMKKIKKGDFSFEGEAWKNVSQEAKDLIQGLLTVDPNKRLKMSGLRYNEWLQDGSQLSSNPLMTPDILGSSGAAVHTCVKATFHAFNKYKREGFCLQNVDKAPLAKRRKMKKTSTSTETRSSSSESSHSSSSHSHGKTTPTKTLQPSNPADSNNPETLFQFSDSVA
PHKG1 (human), sequence (Q16816 whole entry, looked up): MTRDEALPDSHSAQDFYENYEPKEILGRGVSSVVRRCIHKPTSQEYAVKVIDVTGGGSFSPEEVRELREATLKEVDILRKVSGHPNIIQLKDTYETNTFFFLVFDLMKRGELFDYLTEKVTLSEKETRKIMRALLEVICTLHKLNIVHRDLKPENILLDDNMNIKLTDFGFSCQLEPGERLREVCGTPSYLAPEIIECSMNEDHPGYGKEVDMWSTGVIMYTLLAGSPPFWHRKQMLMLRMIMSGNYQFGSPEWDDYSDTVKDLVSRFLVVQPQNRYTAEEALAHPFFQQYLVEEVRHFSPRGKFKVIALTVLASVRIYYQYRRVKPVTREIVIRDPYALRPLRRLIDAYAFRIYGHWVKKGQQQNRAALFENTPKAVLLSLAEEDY
SRPK1 (human), sequence (Q96SB4 whole entry, looked up): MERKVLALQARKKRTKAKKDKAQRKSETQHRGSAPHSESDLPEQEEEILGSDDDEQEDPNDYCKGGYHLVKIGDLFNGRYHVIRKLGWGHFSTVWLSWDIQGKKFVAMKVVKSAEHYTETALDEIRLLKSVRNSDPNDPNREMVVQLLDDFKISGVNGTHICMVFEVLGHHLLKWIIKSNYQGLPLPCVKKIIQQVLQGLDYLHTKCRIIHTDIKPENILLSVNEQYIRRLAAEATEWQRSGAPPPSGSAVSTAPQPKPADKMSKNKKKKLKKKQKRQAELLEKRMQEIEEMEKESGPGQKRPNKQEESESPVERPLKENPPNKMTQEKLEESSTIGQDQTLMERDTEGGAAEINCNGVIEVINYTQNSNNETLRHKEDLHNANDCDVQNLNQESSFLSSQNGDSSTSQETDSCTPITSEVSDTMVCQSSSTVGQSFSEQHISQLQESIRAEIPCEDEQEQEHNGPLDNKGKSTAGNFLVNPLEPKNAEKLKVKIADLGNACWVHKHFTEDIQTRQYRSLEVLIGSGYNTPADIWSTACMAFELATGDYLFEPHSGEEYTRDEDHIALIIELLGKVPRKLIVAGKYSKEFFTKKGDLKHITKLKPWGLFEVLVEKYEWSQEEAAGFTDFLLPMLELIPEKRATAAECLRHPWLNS
MAPK15 (human), sequence (Q8TD08 whole entry, looked up): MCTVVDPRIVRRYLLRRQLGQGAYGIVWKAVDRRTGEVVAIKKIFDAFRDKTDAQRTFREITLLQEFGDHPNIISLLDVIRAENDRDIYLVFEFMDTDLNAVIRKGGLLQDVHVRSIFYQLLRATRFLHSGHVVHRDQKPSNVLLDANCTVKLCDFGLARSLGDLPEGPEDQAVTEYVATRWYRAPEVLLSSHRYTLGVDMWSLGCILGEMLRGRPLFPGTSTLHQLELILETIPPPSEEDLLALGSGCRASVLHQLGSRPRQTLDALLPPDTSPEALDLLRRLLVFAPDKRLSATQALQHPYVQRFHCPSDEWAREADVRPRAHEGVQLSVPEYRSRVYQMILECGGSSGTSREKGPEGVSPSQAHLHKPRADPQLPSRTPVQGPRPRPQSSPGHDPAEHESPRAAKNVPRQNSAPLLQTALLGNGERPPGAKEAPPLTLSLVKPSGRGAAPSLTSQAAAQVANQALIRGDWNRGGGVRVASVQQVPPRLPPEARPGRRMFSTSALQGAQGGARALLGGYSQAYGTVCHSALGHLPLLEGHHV
MAPKAPK2 (human), sequence (P49137 whole entry, looked up): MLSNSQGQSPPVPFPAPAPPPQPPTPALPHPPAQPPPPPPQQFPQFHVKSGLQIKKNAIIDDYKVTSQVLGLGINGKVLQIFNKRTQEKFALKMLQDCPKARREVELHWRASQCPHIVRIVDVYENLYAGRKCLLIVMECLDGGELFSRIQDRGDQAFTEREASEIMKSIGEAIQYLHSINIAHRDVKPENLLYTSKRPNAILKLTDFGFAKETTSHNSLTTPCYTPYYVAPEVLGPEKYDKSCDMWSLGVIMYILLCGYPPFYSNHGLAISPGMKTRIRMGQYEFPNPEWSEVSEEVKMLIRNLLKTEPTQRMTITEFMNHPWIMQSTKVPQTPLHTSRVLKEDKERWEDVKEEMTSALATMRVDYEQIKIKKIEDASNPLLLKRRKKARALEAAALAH
CaMK1 (human), sequence (Q14012 whole entry, looked up): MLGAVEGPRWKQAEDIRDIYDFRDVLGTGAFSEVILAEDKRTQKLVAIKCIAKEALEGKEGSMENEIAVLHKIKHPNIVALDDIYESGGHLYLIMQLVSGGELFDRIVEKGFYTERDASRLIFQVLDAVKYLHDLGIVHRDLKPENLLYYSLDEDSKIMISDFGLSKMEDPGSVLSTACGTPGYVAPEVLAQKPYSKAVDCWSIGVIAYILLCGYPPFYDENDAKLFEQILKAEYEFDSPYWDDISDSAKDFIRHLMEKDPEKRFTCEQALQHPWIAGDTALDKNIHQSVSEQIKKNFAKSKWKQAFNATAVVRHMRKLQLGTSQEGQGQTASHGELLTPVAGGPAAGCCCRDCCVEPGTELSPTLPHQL
NEK6 (human), sequence (Q9HC98 whole entry, looked up): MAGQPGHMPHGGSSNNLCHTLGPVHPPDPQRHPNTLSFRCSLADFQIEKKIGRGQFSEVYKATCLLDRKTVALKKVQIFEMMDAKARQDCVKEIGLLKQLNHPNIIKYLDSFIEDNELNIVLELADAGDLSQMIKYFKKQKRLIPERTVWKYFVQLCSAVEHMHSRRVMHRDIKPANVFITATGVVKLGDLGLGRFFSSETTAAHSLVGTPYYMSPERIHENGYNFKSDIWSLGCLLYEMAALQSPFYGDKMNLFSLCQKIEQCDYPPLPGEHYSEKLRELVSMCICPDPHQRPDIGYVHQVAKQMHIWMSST

CCCC(CCC)C(=O)O
residual activity (BTK (human); compound 10.0 µM): 104%
residual activity (BTK (human); compound 50.0 µM): 94%
residual activity (BRSK1 (human); compound 10.0 µM): 102%
residual activity (BRSK1 (human); compound 50.0 µM): 124%
residual activity (PRKACA (human); compound 1.0 µM): 82%
residual activity (PRKACA (human); compound 10.0 µM): 91%
residual activity (PRKACA (human); compound 50.0 µM): 93%
residual activity (MARK2 (human); compound 10.0 µM): 104%
residual activity (MARK2 (human); compound 50.0 µM): 90%
residual activity (INSR (human); compound 10.0 µM): 66%
residual activity (INSR (human); compound 50.0 µM): 77%
residual activity (MKNK1 (human); compound 1.0 µM): 86%
residual activity (MKNK1 (human); compound 10.0 µM): 112%
residual activity (CaMK1 (human); compound 1.0 µM): 89%
residual activity (CaMK1 (human); compound 10.0 µM): 107%
residual activity (CaMK1 (human); compound 50.0 µM): 101%
residual activity (CAMKK2 (human); compound 10.0 µM): 98%
residual activity (CAMKK2 (human); compound 50.0 µM): 104%
residual activity (PHKG1 (human); compound 1.0 µM): 110%
residual activity (PHKG1 (human); compound 10.0 µM): 89%
residual activity (PHKG1 (human); compound 50.0 µM): 81%
residual activity (EPHA4 (human); compound 10.0 µM): 117%
residual activity (EPHA4 (human); compound 50.0 µM): 104%
residual activity (CSK (human); compound 10.0 µM): 91%
residual activity (CSK (human); compound 50.0 µM): 93%
residual activity (EPHB2 (human); compound 10.0 µM): 106%
residual activity (EPHB2 (human); compound 50.0 µM): 126%
residual activity (INSRR (human); compound 10.0 µM): 101%
residual activity (INSRR (human); compound 50.0 µM): 101%
residual activity (PRKCA (human); compound 1.0 µM): 88%
residual activity (PRKCA (human); compound 10.0 µM): 91%
residual activity (PRKCA (human); compound 50.0 µM): 95%
residual activity (SRPK1 (human); compound 1.0 µM): 94%
residual activity (SRPK1 (human); compound 10.0 µM): 107%
residual activity (SRPK1 (human); compound 50.0 µM): 108%
residual activity (CDK2 CCNA2 (human); compound 1.0 µM): 90%
residual activity (CDK2 CCNA2 (human); compound 10.0 µM): 76%
residual activity (CDK2 CCNA2 (human); compound 50.0 µM): 80%
residual activity (MAPKAPK2 (human); compound 1.0 µM): 85%
residual activity (MAPKAPK2 (human); compound 10.0 µM): 102%
residual activity (MAPKAPK2 (human); compound 50.0 µM): 99%
residual activity (MAP2K1 (human); compound 1.0 µM): 86%
residual activity (MAP2K1 (human); compound 10.0 µM): 89%
residual activity (MAP2K1 (human); compound 50.0 µM): 99%
residual activity (ERBB4 (human); compound 10.0 µM): 80%
residual activity (ERBB4 (human); compound 50.0 µM): 76%
residual activity (PRKAA1 or PRKAA2 (rat); compound 1.0 µM): 98%
residual activity (PRKAA1 or PRKAA2 (rat); compound 10.0 µM): 94%
residual activity (PRKAA1 or PRKAA2 (rat); compound 50.0 µM): 91%
residual activity (PAK7 (human); compound 10.0 µM): 101%
residual activity (PAK7 (human); compound 50.0 µM): 90%
residual activity (JAK2 JH1 JH2 (human); compound 10.0 µM): 80%
residual activity (JAK2 JH1 JH2 (human); compound 50.0 µM): 86%
residual activity (HIPK3 (human); compound 10.0 µM): 89%
residual activity (HIPK3 (human); compound 50.0 µM): 97%
residual activity (LCK (mouse); compound 1.0 µM): 84%
residual activity (LCK (mouse); compound 50.0 µM): 106%
residual activity (MARK1 (human); compound 10.0 µM): 97%
residual activity (MARK1 (human); compound 50.0 µM): 101%
residual activity (RIPK2 (human); compound 10.0 µM): 104%
residual activity (RIPK2 (human); compound 50.0 µM): 90%
residual activity (MST4 (human); compound 10.0 µM): 102%
residual activity (MST4 (human); compound 50.0 µM): 100%
residual activity (EPHA2 (human); compound 10.0 µM): 95%
residual activity (EPHA2 (human); compound 50.0 µM): 99%
residual activity (DYRK2 (human); compound 10.0 µM): 102%
residual activity (DYRK2 (human); compound 50.0 µM): 101%
residual activity (MAPK15 (human); compound 1.0 µM): 90%
residual activity (MAPK15 (human); compound 10.0 µM): 86%
residual activity (MAPK15 (human); compound 50.0 µM): 94%
residual activity (MINK1 (human); compound 10.0 µM): 68%
residual activity (MINK1 (human); compound 50.0 µM): 76%
residual activity (NUAK1 (human); compound 10.0 µM): 88%
residual activity (NUAK1 (human); compound 50.0 µM): 86%
residual activity (RPS6KA5 KD1 KD2 (human); compound 1.0 µM): 94%
residual activity (RPS6KA5 KD1 KD2 (human); compound 10.0 µM): 86%
residual activity (RPS6KA5 KD1 KD2 (human); compound 50.0 µM): 91%
residual activity (NEK6 (human); compound 1.0 µM): 99%
residual activity (NEK6 (human); compound 10.0 µM): 100%
residual activity (NEK6 (human); compound 50.0 µM): 102%
residual activity (NEK2 (human); compound 1.0 µM): 79%
residual activity (NEK2 (human); compound 10.0 µM): 93%
residual activity (NEK2 (human); compound 50.0 µM): 91%
